Measurements from patent US12115182B2, “Adenosine A2A agonists for the treatment of cytokine storm syndrome” (priority 2021, dated 2024).
“Also recorded” adds a separate entry of the source.

Legend:
[1] = tested on: SARS-CoV-2 strain B.1.351; assay type: in vivo, Golden Syrian hamster
[2] = tested on: COVID-19 patients; assay: Regadenoson infusion in hospitalized COVID-19 patients: safety and clinical monitoring; assay type: in vivo, human; settings: for toxicities / side effects (nausea): during infusion or 30 days of follow-up; for SpO2: before vs 24 hours after RA infusion, pulse oximetry, N=5; for blood pressure: during and post RA infusion
Procedure: (§1) In cohort 1 of this trial, we tested the safety, tolerability, and toxicity of regadenoson in 5 COVID-19 patients (WHO stages 4-5) receiving supplemental oxygen without mechanical ventilation. All subjects received an infused loading dose of 5.0 μg/kg up to a maximum of 400 μg over 30 minutes, followed by a maintenance dose of 1.44 μg/kg/hr for 6 hours. Toxicity of regadenoson was graded by using Common Terminology for Adverse Events Criteria. Vital signs, pulse oximetry, arterial blood gas, laboratory studies, and electrocardiograms were performed on a schedule commensurate with level of care to identify potential risk of the study drug during and 12 hours post infusion. The trial was monitored by an NIH designated DSMB. Peripheral blood samples were collected at 4 timepoints. Along with clinical monitoring, plasma levels of cytokines (14-plex Luminex panel) were measured at various time points. Cytokine data were analyzed by SAS 9.5 PROC MIXED. Activation of peripheral blood mononuclear cells including iNKT cells was analyzed by flow cytometry. Flow cytometry data were analyzed by FCS Express 7 Research edition and GraphPad Prism v9. The plasma levels of regadenoson were determined via liquid chromatography-mass spectrometry.
Consented Covid-19 patients were treated with RA administered intravenously using a pediatric infusion pump at a loading dose rate of 5 μg/kg/hr for 30 min followed by a maintenance dose of 1.44 μg/kg/hr for 6 hours. Subjects' vital signs including oxygen saturation (SpO2), blood pressure, heart rate and respiratory rate were monitored throughout RA infusion.
Blood samples were drawn as a source of peripheral blood mononuclear cells (PBMCs). Cells were frozen in 10% DMSO and thawed for analysis of live cells by flow cytometry. Cytokines, CRP, and D dimer levels were measured in plasma. Blood samples were collected just prior to the start of RA infusion (0 hr), just prior to the end of the loading dose (30 min), 4 hours into the maintenance dose (4.5 hr), and the next day (24 hr).

[3] = tested on: circulating iNKT cells; assay: Flow cytometry of CD69 on circulating iNKT cells of COVID-19 patients during regadenoson infusion; assay type: in vivo, human
[4] = day 7, Alzet minipump 80 μg/ml in PBS
[5] = tested on: SARS-CoV-2; assay: Regadenoson in SARS-CoV-2-infected K18-ACE2 mice: survival; assay type: in vivo, mouse; settings: for survival / mortality of infected K18-ACE2 mice: 1.44 μg/kg/hr, 7-day Alzet pump, vs saline
[6] = Plasma levels of regadenoson in COVID-19 patients (LC-MS); assay type: in vivo, human; settings: loading dose then 1.44 μg/kg/hr for 6 hours
Procedure: as §1

[7] = tested on: MHS cells; assay: RAGE shedding in alveolar macrophages (MHS): Western blot of sRAGE, immunofluorescence of RAGE; assay type: cell-based, mouse; settings: PMA-treated MHS cells; GM6001 2 nM, regadenoson 100 nM, ATL146e 10 nM
[8] = PI day 7, compared to control group

## CNC(=O)c1cnn(-c2nc(N)c3ncn([C@@H]4O[C@H](CO)[C@@H](O)[C@H]4O)c3n2)c1 [Regadenoson]
[1]; [8]
  albumin leakage into BAL: slight increase; also recorded: did not significantly
  plasma IL13: slightly depressed; also recorded: did not significantly
[1]; RT-qPCR
  time course of the disease or viral titer detected in throat swabs: did not significantly
[1]; compared to control
  plasma IL4: depressed; also recorded: did significantly
[1]; daily weights, vs control group
  decrease in weight gain: did not significantly
[1]; day 7
  histologic distribution or severity of lung pathology: did not significantly
[1]; day 7, compared to control
  plasma Transforming Growth Factor beta (TGFb): decreased; also recorded: did significantly
  spread of virus to olfactory bulb (brain): decreased; also recorded: did significantly
[1]; whole body plethysmography, PI day 7
  respiratory physiology parameters (EF50, Rpef, Penh): did not significantly
[2]; 5 COVID-19 patients
  toxicities / side effects (nausea): Transient and self-limiting nausea was reported by a single subject
[2]; 5 COVID-19 patients, listed as RA
  toxicities / side effects (nausea): 1 case of transient self-limiting nausea, but no other toxicities or reportable side effects
[2]; 5 COVID-19 patients, loading dose 5.0 μg/kg over 30 minutes, maintenance 1.44 μg/kg/hr for 6 hours
  serious adverse events: No serious adverse events were observed
[2]; 5 patients, all recovered
  time to discharge: 3 to 9 days
[2]; 24 hours post RA infusion, n=5
  D dimer levels: significantly decreased
[2]; Case 3, 88% on admission
  SpO2 after the RA infusion: 97%
[2]
  SpO2: significantly less (P<0.05) than 24 hours after treatment; also recorded: statistically significant difference
[2]; listed as RA
  SpO2: significantly further elevated
[2]; n=5
  blood pressure: no significant changes
[2]; n=5, listed as RA
  blood pressure: remain stable
[2]; in 3 of 4 patients, 24 hours after RA infusion
  CRP levels reduced by: > 50%
[2]; throughout the infusion and 12 hours post infusion
  vital signs: stable
[2]; within 24 hours of RA treatment
  subjective symptoms: subjective improvement in all subjects
[3]; 4 hours into the maintenance dose
  expression of activation marker CD69 on circulating iNKT cells: significantly reduced
[3]; after the 30 min loading dose
  expression of activation marker CD69 on circulating iNKT cells: significantly reduced
[3]; within 30 minutes
  reduction of the fraction of circulating iNKT cells that are CD69+: 50%
[4]
  mean +/-SEM plasma level for Regadenoson: 7.6 ± 1.3 ng/mL
[5]; 1.44 μg/kg/hr subcutaneous infusion, 7-day pump, mostly on day 7
  treated mice died: 50%
[5]
  survival / mortality of infected K18-ACE2 mice: increases survival
[5]; listed as RA
  survival / mortality of infected K18-ACE2 mice: decreases mortality
[6]
  median peak plasma levels of regadenoson: 14.24 ng/mL
  peak plasma levels of regadenoson, range: 3.64 to 78.64 ng/mL
[7]
  PMA-induced shedding of cell membrane-anchored RAGE: suppressed the shedding of RAGE; also recorded: partially inhibited
